# Laboratory results reported in patent publication US20080161340A1, “Tetrahydroquinilinones, tetrahydronaphthyridones and derivatives thereof” (priority 2006, published 2008).
# Tests used:
# Format in all cases: cell-based
# [1] = molecular target: T1, hCB2 (Homo sapiens, UniProt P34972); test: cAMP assay (LANCE TR-FRET) in CHO-K1 cells stably expressing hCB2, agonist/inverse agonist; conditions: intracellular cAMP, CHO-K1 hCB2 cells prestimulated with NKH-477; + agonist, − inverse agonist
# T1 construct: host or cells: CHO-K1
# T1 sequence (P34972 whole entry): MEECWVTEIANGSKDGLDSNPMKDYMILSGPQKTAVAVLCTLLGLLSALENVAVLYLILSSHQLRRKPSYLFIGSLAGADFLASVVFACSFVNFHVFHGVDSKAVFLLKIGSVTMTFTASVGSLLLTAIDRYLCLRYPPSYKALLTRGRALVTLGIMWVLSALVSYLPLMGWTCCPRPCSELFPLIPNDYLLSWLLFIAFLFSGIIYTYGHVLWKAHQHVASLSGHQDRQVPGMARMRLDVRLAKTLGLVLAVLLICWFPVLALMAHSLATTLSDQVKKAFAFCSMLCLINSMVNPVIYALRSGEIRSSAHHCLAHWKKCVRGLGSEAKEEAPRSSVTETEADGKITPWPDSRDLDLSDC
# Description: (§1) The ability of compounds to act as agonists or inverse agonists at human CB2 and CB1 receptors (hCB2, hCB1, respectively) was determined by measuring changes in intracellular cAMP levels. Chinese Hamster Ovary (CHO-K1) cell lines stably expressing hCB2 (Genebank: X74328) or hCB1 (Genebank: X54937) were purchased from Euroscreen (Gosselies, Belgium).
# (§2) Cell lines were grown in suspension in EX-CELL 302 CHO Serum-free medium (Sigma, cat #14324C) supplemented with 1% Fetal Bovine Serum, glutamine and non-essential amino-acids under 0.4 mg/mL G418 selection.
# (§3) Receptor mediated responses were determined by measuring changes in intracellular cAMP using LANCE cAMP detection kit (cat #AD0264, PerkinElmer, Wellesley, Mass.) based on time-resolved fluorescence resonance energy transfer (TR-FRET). Changes in cAMP were determined in cells pre-incubated with IBMX (isobutyl methylxanthine) and prestimulated with NKH-477 (a water soluble forskolin derivative, cat #1603, Tocris, Ellisville, Mo.) to increase basal cAMP levels as detailed below.
# (§4) On the day of the experiment, cells were spun at low speed for 5 min at room temperature. The supernatant was removed and cells were resuspended in stimulation buffer (Hanks Buffered Salt Solution/5 mM HEPES, containing 0.5 mM IBMX (cat #17018, Sigma) and 0.02% BSA (PerkinElmer, cat #CR84-100)). Cell clumps were removed by filtering through cell strainer 40 μm (BD Falcon, Discovery Labware, Bedford, Mass.) and diluted to 2×10^5 cells/mL. Antibody supplied with the LANCE cAMP immunoassay kit was then added according to the manufacturer's instructions. An aliquot of cells was taken for un-induced controls. To the remaining cells was added NKH-477 (a water soluble forskolin derivative, Tocris cat #1603) to a final concentration of 2-8 μM. Cells were then incubated for 30 min at room temperature prior to adding to Proxiplates containing test compounds (final DMSO concentration was less than 0.5%) with a Multidrop bulk dispenser, followed by a sixty minute incubation at room temperature. The response was stopped by addition of the detection mix supplied with the LANCE kit.
# (§5) The reagents were allowed to equilibrate for three hours prior to reading on an Envision multi-mode detector (PerkinElmer). TR-FRET was measured using a 330-380 nm excitation filter, a 665 nm emission filter, dichroic mirror 380 nm and Z=1 mm.
# (§6) Cyclic AMP concentrations in each well were back-calculated from a cAMP standard curve run concurrently during each assay. Each plate contained 16 wells of forskolin stimulated cells and 16 wells of forskolin plus CP55,940-treated. CP55,940-treated cells were treated with CP55,940 (Tocris cat. # 0949) at 1 μm and the maximal response was used as the full range (100%) standard. WIN55,212 (Tocris cat. # 1038) was used as an internal standard. Concentrations of cAMP were expressed as a percent of the difference of these two groups of wells. Concentration-response data including ECso (the concentration of compound producing 50% of the maximal response) and intrinsic activity (the percent maximal activation compared to full activation by CP55,940) were determined using a four-parameter non-linear regression algorithm (Xlfit equation 251, IDBS).
# [2] = molecular target: T2, rCB2 (Rattus norvegicus, UniProt Q9QZN9); test: cAMP assay, rCB2 in Table 7, agonist/inverse agonist; conditions: intracellular cAMP; + agonist, − inverse agonist
# T2 sequence (Q9QZN9 1-360): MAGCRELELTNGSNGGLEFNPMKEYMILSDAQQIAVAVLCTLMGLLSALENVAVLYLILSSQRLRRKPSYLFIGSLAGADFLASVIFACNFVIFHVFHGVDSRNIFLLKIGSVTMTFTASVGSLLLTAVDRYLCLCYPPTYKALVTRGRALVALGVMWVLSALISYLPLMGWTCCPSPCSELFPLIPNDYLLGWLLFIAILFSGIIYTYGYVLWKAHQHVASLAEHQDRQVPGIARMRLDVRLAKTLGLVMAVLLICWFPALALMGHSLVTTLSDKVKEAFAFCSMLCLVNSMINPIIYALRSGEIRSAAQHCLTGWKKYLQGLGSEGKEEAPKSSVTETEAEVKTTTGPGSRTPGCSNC
# Description: as §3, §4, §5, §6
# [3] = molecular target: T3, hCB1 (Homo sapiens, UniProt P21554); test: cAMP assay (LANCE TR-FRET) in CHO-K1 cells stably expressing hCB1, agonist/inverse agonist; conditions: intracellular cAMP, CHO-K1 hCB1 cells prestimulated with NKH-477, + agonist, − inverse agonist; for EC50: read-out: hCB1 EC50 class
# T3 construct: host or cells: CHO-K1
# T3 sequence (P21554 whole entry): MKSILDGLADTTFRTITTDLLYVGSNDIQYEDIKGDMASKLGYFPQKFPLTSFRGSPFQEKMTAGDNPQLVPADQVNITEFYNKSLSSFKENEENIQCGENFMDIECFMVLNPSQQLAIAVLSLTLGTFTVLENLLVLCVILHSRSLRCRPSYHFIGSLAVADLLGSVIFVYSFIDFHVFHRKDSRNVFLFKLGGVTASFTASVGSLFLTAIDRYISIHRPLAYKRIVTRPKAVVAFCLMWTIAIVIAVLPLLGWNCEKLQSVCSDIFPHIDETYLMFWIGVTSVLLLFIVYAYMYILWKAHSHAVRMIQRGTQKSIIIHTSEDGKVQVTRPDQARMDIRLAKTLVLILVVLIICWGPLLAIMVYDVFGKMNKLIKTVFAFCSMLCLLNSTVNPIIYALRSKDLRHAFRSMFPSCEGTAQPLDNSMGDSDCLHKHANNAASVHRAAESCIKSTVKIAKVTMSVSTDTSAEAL
# Description: as §1, §2, §3, §4, §5, §6
SMILES,hCB2 EC50 class [1],rCB2 EC50 class [2],hCB1 EC50 class [3],EC50 [3] [µM]
"CC(C)CS(=O)(=O)N1CCc2c(cc(-c3cccc(Cl)c3)c(=O)n2CC2CC2)C1 [Compound 50, 3-(3-chlorophenyl)-1-(cyclopropylmethyl)-6-(isobutylsulfonyl)-5,6,7,8-tetrahydro-1,6-naphthyridin-2(1H)-one]",+C,−B,−B,–
"COc1cccc(-c2cc3c(n(CC4CCC4)c2=O)CCN(S(C)(=O)=O)C3)c1 [Compound 52, 1-(cyclobutylmethyl)-3-(3-methoxyphenyl)-6-(methylsulfonyl)-5,6,7,8-tetrahydro-1,6-naphthyridin-2(1H)-one]",+B,+A,–,> 10
"CS(=O)(=O)N1CCc2c(cc(-c3ccccc3F)c(=O)n2CC2CCC2)C1 [Compound 53, 1-(cyclobutylmethyl)-3-(2-fluorophenyl)-6-(methylsulfonyl)-5,6,7,8-tetrahydro-1,6-naphthyridin-2(1H)-one]",+A,+A,–,> 10
"CC(=O)N1CCc2c(cc(-c3ccccc3F)c(=O)n2CC2CCC2)C1 [Compound 54, 6-acetyl-1-(cyclobutylmethyl)-3-(2-fluorophenyl)-5,6,7,8-tetrahydro-1,6-naphthyridin-2(1H)-one]",+B,+A,–,> 10
"CS(=O)(=O)N1CCc2c(cc(Cc3ccccc3F)c(=O)n2CC2CCC2)C1 [Compound 58, 1-(cyclobutylmethyl)-3-(2-fluorobenzyl)-6-(methylsulfonyl)-5,6,7,8-tetrahydro-1,6-naphthyridin-2(1H)-one]",+A,+A,+B,–
